Several values for one entry are separate records, joined by “and”; a condition that tells them apart may be missing. Equal entries are not always repeated. Inconclusive results and toxic doses are left out. How the source made its calls: active means survival T/C of 150% or more; inactive means T/C below 125% in these data.
System: P388 leukemia ip, CD2F1 mice, survival T/C
Assay: NCI In Vivo Anticancer Drug Screen. Data for tumor model P388 Leukemia (intraperitoneal) in CD2F1 (CDF1) mice
Conditions: endpoint: median survival time, higher = longer survival
Procedure, shortened: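 Mice carrying the transplanted tumor received test compound or vehicle. Survival was recorded in each group, and the value is the treated-group measurement divided by that of the vehicle-treated control group.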

[1] = dose: 25.0 mg/kg/injection, schedule: Q01DX009 (ip), vehicle: other
[2] = dose: 50.0 mg/kg/injection, schedule: Q01DX009 (ip), vehicle: other
[3] = dose: 100.0 mg/kg/injection, schedule: Q01DX009 (ip), vehicle: other
[4] = dose: 200.0 mg/kg/injection, schedule: Q01DX009 (ip), vehicle: other
[5] = dose: 100.0 mg/kg/injection, schedule: Q01DX001 (ip), vehicle: saline
[6] = dose: 200.0 mg/kg/injection, schedule: Q01DX001 (ip), vehicle: saline
[7] = dose: 400.0 mg/kg/injection, schedule: Q01DX001 (ip), vehicle: saline
[8] = dose: 50.0 mg/kg/injection, schedule: Q01DX005 (ip), vehicle: saline with Tween-80
[9] = dose: 100.0 mg/kg/injection, schedule: Q01DX005 (ip), vehicle: saline with Tween-80
[10] = dose: 200.0 mg/kg/injection, schedule: Q01DX005 (ip), vehicle: saline with Tween-80
[11] = dose: 50.0 mg/kg/injection, schedule: Q01DX005 (ip), vehicle: Klucel (hydroxypropylcellulose) (HPC)
[12] = dose: 60.0 mg/kg/injection, schedule: Q01DX005 (ip), vehicle: saline with Tween-80
[13] = dose: 120.0 mg/kg/injection, schedule: Q01DX005 (ip), vehicle: saline with Tween-80
[14] = dose: 240.0 mg/kg/injection, schedule: Q01DX005 (ip), vehicle: saline with Tween-80
[15] = dose: 60.0 mg/kg/injection, schedule: Q01DX005 (ip), vehicle: Klucel (hydroxypropylcellulose) (HPC)
[16] = dose: 120.0 mg/kg/injection, schedule: Q01DX005 (ip), vehicle: Klucel (hydroxypropylcellulose) (HPC)
[17] = dose: 240.0 mg/kg/injection, schedule: Q01DX005 (ip), vehicle: Klucel (hydroxypropylcellulose) (HPC)

Measured: T/C

C=C(C)Cn1ccn(C)c1=S
inactive: dose: 100.0 mg/kg/injection, schedule: Q04DX003 (ip), vehicle: saline with Tween-80 96 % of control | dose: 200.0 mg/kg/injection, schedule: Q04DX003 (ip), vehicle: saline with Tween-80 98 % of control | dose: 400.0 mg/kg/injection, schedule: Q04DX003 (ip), vehicle: saline with Tween-80 102 % of control

Nc1nc(N)c2c(n1)=NC(c1cccc3ccccc13)N=2 (centres undefined)
inactive: [1] 101 % of control | [2] 106 % of control | [3] 102 % of control | [4] 99 % of control | dose: 400.0 mg/kg/injection, schedule: Q01DX009 (ip), vehicle: other 106 % of control

NC(=O)C(=Nc1ccccc1)Nc1ccccc1
inactive: [5] 115 % of control | [6] 107 % of control | [7] 104 % of control

C[CH2][Sn]([CH2]C)[S]CC(N)C(=O)O (centres undefined)
inactive: dose: 3.75 mg/kg/injection, schedule: Q01DX005 (ip), vehicle: Klucel (hydroxypropylcellulose) (HPC) 110 % of control | dose: 7.5 mg/kg/injection, schedule: Q01DX005 (ip), vehicle: Klucel (hydroxypropylcellulose) (HPC) 120 % of control

CCc1nc(N)nc(N)c1-c1ccc(Cl)c(N=NN(C)C)c1
inactive: [8] 92 % of control | [9] 97 % of control | [10] 105 % of control

O=C1CC(=O)NP(=O)(Oc2ccccc2)N1
inactive: dose: 100.0 mg/kg/injection, schedule: Q04DX002 (ip), vehicle: saline 103 % of control | dose: 200.0 mg/kg/injection, schedule: Q04DX002 (ip), vehicle: saline 100 % of control

CC(C)COC1OCCCC1C(OCC(C)C)C(C)C (centres undefined)
inactive: dose: 100.0 mg/kg/injection, schedule: Q01DX009 (ip), vehicle: saline 108 % of control | dose: 200.0 mg/kg/injection, schedule: Q01DX009 (ip), vehicle: saline 113 % of control | dose: 400.0 mg/kg/injection, schedule: Q01DX009 (ip), vehicle: saline 99 % of control

O=C([O-])c1ccccc1[O-].[Cu+2].c1cnc2c(c1)ccc1cccnc12
inactive: dose: 100.0 mg/kg/injection, schedule: Q04DX002 (ip), vehicle: Klucel (hydroxypropylcellulose) (HPC) 109 % of control

C[C@@H]1CC[C@@]2(OC1)O[C@H]1C[C@H]3[C@@H]4CC(=O)C5=CC(=O)CC[C@]5(C)[C@H]4CC[C@]3(C)[C@H]1[C@@H]2C
inactive: dose: 2.25 mg/kg/injection, schedule: Q01DX005 (ip), vehicle: Klucel (hydroxypropylcellulose) (HPC) 101 % of control | dose: 4.5 mg/kg/injection, schedule: Q01DX005 (ip), vehicle: Klucel (hydroxypropylcellulose) (HPC) 100 % of control | dose: 9.0 mg/kg/injection, schedule: Q01DX005 (ip), vehicle: Klucel (hydroxypropylcellulose) (HPC) 97 % of control | dose: 18.0 mg/kg/injection, schedule: Q01DX005 (ip), vehicle: Klucel (hydroxypropylcellulose) (HPC) 89 % of control | dose: 36.0 mg/kg/injection, schedule: Q01DX005 (ip), vehicle: Klucel (hydroxypropylcellulose) (HPC) 88 % of control

COC(=O)c1n[nH]n(Cc2ccccc2)c1=O (tested in a mixture with another compound)
inactive: [11] 103 % of control | dose: 100.0 mg/kg/injection, schedule: Q01DX005 (ip), vehicle: Klucel (hydroxypropylcellulose) (HPC) 92 % of control | dose: 200.0 mg/kg/injection, schedule: Q01DX005 (ip), vehicle: Klucel (hydroxypropylcellulose) (HPC) 92 % of control

COc1ccc(C2C(C#N)C(=O)N3C(=O)C(NC(C)=O)=C(O)C23)cc1 (centres undefined)
inactive: [5] 94 % of control | [6] 95 % of control | [7] 97 % of control

CS(=O)(=O)c1cc([N+](=O)[O-])cc([N+](=O)[O-])c1Cl
inactive: dose: 2.5 mg/kg/injection, schedule: Q01DX009 (ip), vehicle: saline with Tween-80 109 % of control | dose: 5.0 mg/kg/injection, schedule: Q01DX009 (ip), vehicle: saline with Tween-80 90 % of control

O=C1c2ccccc2C(=O)c2c1cc1c(c2[N+](=O)[O-])OCO1
inactive: dose: 30.0 mg/kg/injection, schedule: Q01DX005 (ip), vehicle: saline with Tween-80 99 % of control and 107 % of control | [12] 99 % of control and 112 % of control and 113 % of control | [13] 99 % of control and 118 % of control and 120 % of control | [14] 118 % of control and 96 % of control

CC(C)CC(=O)O[C@@H]1OC=C(COC2OC(CO)C(O)C(O)C2O)[C@H]2CC(=O)[C@@H](C)[C@@H]12 (some centres undefined)
inactive: dose: 8.0 mg/kg/injection, schedule: Q01DX005 (ip), vehicle: saline 118 % of control | dose: 16.0 mg/kg/injection, schedule: Q01DX005 (ip), vehicle: saline 116 % of control | dose: 32.0 mg/kg/injection, schedule: Q01DX005 (ip), vehicle: saline 107 % of control | dose: 64.0 mg/kg/injection, schedule: Q01DX005 (ip), vehicle: saline 110 % of control

COC(=O)CC1C=CC(OC)[C@@]2(C)C(=O)C(OC)=CC(=O)[C@@H]12 (some centres undefined)
inactive: [12] 101 % of control | [13] 105 % of control | [14] 91 % of control

Cc1ccc(C2=CSC3=NCCN23)cc1Cl
inactive: dose: 12.5 mg/kg/injection, schedule: Q01DX005 (ip), vehicle: Klucel (hydroxypropylcellulose) (HPC) 99 % of control | dose: 25.0 mg/kg/injection, schedule: Q01DX005 (ip), vehicle: Klucel (hydroxypropylcellulose) (HPC) 101 % of control | [11] 107 % of control

CC[C@H](C)[C@H](NC(=O)OC(C)(C)C)C(=O)ON1C(=O)CCC1=O
inactive: [8] 109 % of control | [9] 113 % of control | [10] 109 % of control

CCOC(=O)CCC1CCCC(CCC(=O)OCC)C1=O (centres undefined)
inactive: [2] 105 % of control | [3] 101 % of control | [4] 106 % of control

CCOC(=O)NNCC(=O)OCc1ccccc1
inactive: [1] 90 % of control | [2] 93 % of control | [3] 100 % of control | [4] 109 % of control

CCOC(=O)c1sc(C(=O)OCC)c2c1-c1cccc3cccc-2c13
inactive: [12] 100 % of control | [13] 99 % of control | [14] 97 % of control

CN(C)C1CCCCC1[N+](C)(C)C (centres undefined)
inactive: dose: 5.0 mg/kg/injection, schedule: Q01DX009 (ip), vehicle: saline sonified 100 % of control | dose: 10.0 mg/kg/injection, schedule: Q01DX009 (ip), vehicle: saline sonified 95 % of control | dose: 20.0 mg/kg/injection, schedule: Q01DX009 (ip), vehicle: saline sonified 90 % of control

CN1N=C(N)c2cn(C3OC(COP(=O)(O)O)C(O)C3O)c3ncnc1c23 (centres undefined)
inactive: dose: 6.25 mg/kg/injection, schedule: Q01DX009 (ip), vehicle: water 124 % of control | dose: 20.0 mg/kg/injection, schedule: Q01DX005 (ip), vehicle: saline 122 % of control | dose: 38.0 mg/kg/injection, schedule: Q01DX005 (ip), vehicle: water 124 % of control

CC1CN(S(=O)(=O)c2cc(Cl)c(Oc3ccc([N+](=O)[O-])cc3Cl)c(Cl)c2)CC(C)O1 (centres undefined)
inactive: [15] 106 % of control | [16] 101 % of control | [17] 97 % of control

COCCOC(=O)C1=C(O)c2ccccc2S(=O)(=O)N1C
inactive: [15] 106 % of control | [16] 109 % of control | [17] 120 % of control

CCCCCCCCCCCCCCCCS(=O)(=O)N/N=C(\c1ccc(C(C)C)cc1)N1CCOCC1
inactive: dose: 50.0 mg/kg/injection, schedule: Q01DX009 (ip), vehicle: Klucel (hydroxypropylcellulose) (HPC) 90 % of control | dose: 100.0 mg/kg/injection, schedule: Q01DX009 (ip), vehicle: Klucel (hydroxypropylcellulose) (HPC) 89 % of control | dose: 200.0 mg/kg/injection, schedule: Q01DX009 (ip), vehicle: Klucel (hydroxypropylcellulose) (HPC) 90 % of control

COn1nnc2ccccc21
inactive: dose: 50.0 mg/kg/injection, schedule: Q01DX009 (ip), vehicle: saline with Tween-80 99 % of control | dose: 100.0 mg/kg/injection, schedule: Q01DX009 (ip), vehicle: saline with Tween-80 104 % of control | dose: 200.0 mg/kg/injection, schedule: Q01DX009 (ip), vehicle: saline with Tween-80 92 % of control

CC(C)(C)C1CCC(NC(=O)c2ccccc2)CC1 (centres undefined)
inactive: dose: 3.13 mg/kg/injection, schedule: Q01DX009 (ip), vehicle: saline with Tween-80 99 % of control | dose: 6.25 mg/kg/injection, schedule: Q01DX009 (ip), vehicle: saline with Tween-80 99 % of control | dose: 12.5 mg/kg/injection, schedule: Q01DX009 (ip), vehicle: saline with Tween-80 93 % of control | dose: 25.0 mg/kg/injection, schedule: Q01DX009 (ip), vehicle: saline with Tween-80 99 % of control
